Test: xn = mol fraction of the nth substance listed
Conditions: 100 kPa, Liquid; for viscosity: Falling or rolling sphere viscometry; for mass density: Vibrating tube method

CCCCCCCCCCC [undecane] + CCCO
Conditions | mass density, 283.15 K [kg/m3] | mass density, 288.15 K [kg/m3] | mass density, 293.15 K [kg/m3] | mass density, 298.15 K [kg/m3] | viscosity, 283.15 K [mPa·s] | viscosity, 288.15 K [mPa·s] | viscosity, 293.15 K [mPa·s] | viscosity, 298.15 K [mPa·s] | viscosity, 303.15 K [mPa·s]
x1 = 0.1003 | 794.54 | 790.63 | 786.69 | 782.72 | 2.378 | 2.104 | 1.865 | 1.655 | 1.487
x1 = 0.2009 | 782.93 | 779.03 | 775.1 | 771.14 | 2.098 | 1.861 | 1.656 | 1.481 | 1.332
x1 = 0.3004 | 774.29 | 770.41 | 766.5 | 762.56 | 1.867 | 1.69 | 1.515 | 1.357 | 1.223
x1 = 0.3997 | 767.69 | 763.82 | 759.92 | 756 | 1.722 | 1.539 | 1.382 | 1.246 | 1.129
x1 = 0.4998 | 762.46 | 758.6 | 754.73 | 750.83 | 1.585 | 1.426 | 1.286 | 1.166 | 1.061
x1 = 0.6005 | 758.08 | 754.26 | 750.41 | 746.54 | 1.482 | 1.338 | 1.214 | 1.106 | –
x1 = 0.6974 | 754.68 | 750.86 | 747.04 | 743.2 | 1.412 | 1.28 | 1.165 | 1.065 | –
x1 = 0.8 | 751.72 | 747.96 | 744.17 | 740.37 | 1.371 | 1.246 | 1.138 | 1.044 | –
x1 = 0.8963 | 749.45 | 745.71 | 741.96 | 738.2 | 1.356 | 1.235 | 1.13 | 1.038 | –
x1 = 1 | 747.78 | 744.06 | 740.35 | 736.64 | 1.371 | 1.249 | 1.145 | 1.062 | –

Reference: the NIST ThermoML archive (doi:10.1021/acs.jced.6b00121)
